Data from the supplement of paper PMC10307832.

Columns and labels:
Experiment in all cases: relative viability (nuclei count vs DMSO), 5 days (fraction); higher = more cells survive
GSK126 + Linsitinib = compound: CC[C@H](C)N1C=C(C2=C(C=C(C=C21)C3=CN=C(C=C3)N4CCNCC4)C(=O)NCC5=C(C=C(NC5=O)C)C)C [GSK126] + C[C@]1(O)C[C@@H](c2nc(-c3ccc4ccc(-c5ccccc5)nc4c3)c3c(N)nccn32)C1 [Linsitinib] (partner 1 µM)
How it was run: (§1)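 Medians of duplicate plates are given as relative viability. That measure is the nuclei count in treated wells divided by the count in vehicle wells. Counts were taken on 4× images of lung cancer cell lines in 1536-well plates, 5 days after pin-tool dosing the day after seeding with one drug alone or a fixed anchor-drug dose plus five library-drug doses (not always all listed) in √10 steps.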

MLN4924 + Pemetrexed = compound: NS(=O)(=O)OC[C@@H]1C[C@@H](n2ccc3c(N[C@H]4CCc5ccccc54)ncnc32)C[C@@H]1O [MLN4924] + Nc1nc2[nH]cc(CCc3ccc(C(=O)N[C@@H](CCC(=O)O)C(=O)O)cc3)c2c(=O)[nH]1 [Pemetrexed] (partner 0.2 µM)
How it was run: as §1

MLN4924 + OSI-027 = compound: NS(=O)(=O)OC[C@@H]1C[C@@H](n2ccc3c(N[C@H]4CCc5ccccc54)ncnc32)C[C@@H]1O [MLN4924] + COc1cccc2cc(-c3nc([C@H]4CC[C@H](C(=O)O)CC4)n4ncnc(N)c34)[nH]c12 [OSI-027] (partner 0.5 µM)
How it was run: as §1

MLN4924 + AZD7762 = compound: NS(=O)(=O)OC[C@@H]1C[C@@H](n2ccc3c(N[C@H]4CCc5ccccc54)ncnc32)C[C@@H]1O [MLN4924] + NC(=O)Nc1cc(-c2cccc(F)c2)sc1C(=O)N[C@H]1CCCNC1 [AZD7762] (partner 0.2 µM)
How it was run: as §1

Row | Cell Line | relative viability (GSK126 + Linsitinib; first compound 0.08 µM) | relative viability (GSK126 + Linsitinib; first compound 0.253 µM) | relative viability (GSK126 + Linsitinib; first compound 0.8 µM) | relative viability (GSK126 + Linsitinib; first compound 2.53 µM) | relative viability (GSK126 + Linsitinib; first compound 8 µM) | relative viability (MLN4924 + Pemetrexed; first compound 0.04 µM) | relative viability (MLN4924 + Pemetrexed; first compound 0.1265 µM) | relative viability (MLN4924 + Pemetrexed; first compound 0.4 µM) | relative viability (MLN4924 + Pemetrexed; first compound 1.265 µM) | relative viability (MLN4924 + Pemetrexed; first compound 4 µM) | relative viability (MLN4924 + OSI-027; first compound 0.04 µM) | relative viability (MLN4924 + OSI-027; first compound 0.1265 µM) | relative viability (MLN4924 + OSI-027; first compound 0.4 µM) | relative viability (MLN4924 + OSI-027; first compound 1.265 µM) | relative viability (MLN4924 + OSI-027; first compound 4 µM) | relative viability (MLN4924 + AZD7762; first compound 0.04 µM) | relative viability (MLN4924 + AZD7762; first compound 0.1265 µM) | relative viability (MLN4924 + AZD7762; first compound 0.4 µM) | relative viability (MLN4924 + AZD7762; first compound 1.265 µM) | relative viability (MLN4924 + AZD7762; first compound 4 µM)
1 | SK-MES-1 | 1.12 | 1.07 | 0.985 | 0.981 | 1.06 | 0.968 | 0.87 | 0.415 | 0.227 | 0.247 | 0.678 | 0.585 | 0.266 | 0.133 | 0.16 |  |  |  |  | 
2 | NCI-H1648 |  |  |  |  |  | 0.748 | 0.76 | 0.559 | 0.321 | 0.359 | 0.246 | 0.235 | 0.21 | 0.205 | 0.228 | 0.777 | 0.727 | 0.526 | 0.33 | 0.223
3 | PC-14 | 0.944 | 0.994 | 0.982 | 0.968 | 0.954 | 0.157 | 0.128 | 0.0989 | 0.0654 | 0.0612 | 1.03 | 0.787 | 0.378 | 0.0583 | 0.065 | 0.335 | 0.405 | 0.347 | 0.166 | 0.127
4 | NCI-H1651 | 1.07 | 0.815 | 0.855 | 0.972 | 1.05 | 0.632 | 0.693 | 0.703 | 0.509 | 0.171 | 0.694 | 0.828 | 0.866 | 0.398 | 0.161 | 0.495 | 0.53 | 0.47 | 0.436 | 0.158
5 | HOP-62 | 1.05 | 0.979 | 0.856 | 0.926 | 0.899 | 0.235 | 0.175 | 0.0617 | 0.0458 | 0.0811 | 0.73 | 0.565 | 0.337 | 0.0849 | 0.132 | 0.438 | 0.263 | 0.111 | 0.051 | 0.0648
6 | HCC-44 | 0.681 | 0.692 | 0.659 | 0.7 | 0.715 | 0.653 | 0.62 | 0.484 | 0.455 | 0.443 | 0.423 | 0.263 | 0.171 | 0.216 | 0.233 | 1.03 | 0.992 | 0.824 | 0.563 | 0.478
7 | HCC-15 | 0.927 | 0.683 | 0.891 | 0.957 | 0.827 | 0.205 | 0.158 | 0.0806 | 0.0787 | 0.0939 | 0.347 | 0.197 | 0.139 | 0.0813 | 0.0848 | 1.13 | 0.971 | 0.645 | 0.0981 | 0.125
8 | NCI-H460 | 0.76 | 0.784 | 0.787 | 0.798 | 0.969 | 0.0658 | 0.0623 | 0.0708 | 0.059 | 0.0457 | 0.739 | 0.781 | 0.893 | 0.0922 | 0.0324 | 0.575 | 0.772 | 0.621 | 0.206 | 0.0543
9 | NCI-H1299 | 0.986 | 0.998 | 1 | 0.93 | 0.964 |  |  |  |  |  |  |  |  |  |  |  |  |  |  | 
10 | SK-LU-1 | 1.31 | 1.07 | 1.11 | 1.44 | 1.25 | 0.94 | 0.829 | 0.26 | 0.194 | 0.212 | 0.366 | 0.331 | 0.177 | 0.128 | 0.139 |  |  |  |  | 
11 | COR-L 105 | 1.01 | 1.06 | 0.729 | 0.997 | 0.858 | 0.901 | 0.914 | 0.557 | 0.305 | 0.363 | 0.721 | 0.617 | 0.511 | 0.238 | 0.311 |  |  |  |  | 
12 | COR-L23 | 1.06 | 1.12 | 0.918 | 0.912 | 0.99 | 0.193 | 0.199 | 0.168 | 0.163 | 0.132 | 0.718 | 0.602 | 0.555 | 0.199 | 0.119 |  |  |  |  | 
13 | NCI-H3122 | 1.03 | 0.998 | 0.86 | 1.05 | 1.04 | 0.202 | 0.219 | 0.17 | 0.155 | 0.138 | 0.917 | 0.603 | 0.219 | 0.122 | 0.121 | 0.916 | 0.485 | 0.229 | 0.132 | 0.105
14 | NCI-H23 | 0.63 | 0.528 | 0.442 | 0.592 | 0.725 | 0.74 | 0.842 | 0.421 | 0.256 | 0.213 | 0.514 | 0.497 | 0.244 | 0.136 | 0.177 | 0.304 | 0.263 | 0.282 | 0.213 | 0.28
15 | PC-3 [JPC-3] | 1.01 | 0.977 | 0.941 | 0.921 | 0.958 | 1.1 | 1.26 | 0.288 | 0.311 | 0.377 | 0.829 | 0.744 | 0.659 | 0.283 | 0.237 | 0.854 | 0.964 | 0.736 | 0.328 | 0.334
16 | NCI-H2228 | 1.11 | 0.681 | 0.755 | 0.708 | 0.542 | 0.377 | 0.32 | 0.213 | 0.0983 | 0.119 | 0.611 | 0.683 | 0.148 | 0.141 | 0.14 |  |  |  |  | 
17 | A549 | 0.687 | 0.524 | 0.541 | 0.594 | 0.58 |  |  |  |  |  |  |  |  |  |  |  |  |  |  | 
18 | NCI-H358 | 0.939 | 0.768 | 0.785 | 0.675 | 0.738 | 0.177 | 0.16 | 0.134 | 0.107 | 0.128 | 0.968 | 0.649 | 0.492 | 0.0759 | 0.118 | 0.518 | 0.472 | 0.369 | 0.144 | 0.215
